Patent publication US8278090B1, “Heterotrophic cultivation of hydrocarbon-producing microalgae” (Solazyme, Inc., priority 2008, dated 2012)
“And” between values parts separate entries of the source, which are not always exact repeats. Equal values may be shown once.

Tests used:
Format in all cases: cell-based
[1] = system: Botryococcus braunii (strain UTEX 572); assay: Media component screening in heterotrophic culture; settings: UTEX 572, 0.2% component + 3% glucose, 6-well plates, dark, room temperature, 16 days
Description: Media components incorporated in soil bacteria media were tested in heterotrophic culture of Botryococcus braunii (strain UTEX 572). For each component tested, 5 ml of B11 media (as described in Example 2 above) supplemented with 3% glucose (Fisher) were prepared in 6-well plates. Additionally, the media was supplemented with 0.2% of one of the following soil bacteria media components: dextrin (MP Biomedicals), malt extract (MP Biomedicals), traders yeast (Pharmamedia), corn meal, corn steep powder (Marcor), whole dead yeast (Engevita), casein type M (Marcor), casein type B (Marcor), tomato paste, molasses, soy hydrolysate (MP Biomedicals), soy flour (Arrowhead Mills), corn starch (Sigma), and maltose (Fisher). Wells were inoculated and cultures were grown at room temperature in the dark for 16 days. […] All media were filter sterilized.
The cells from each condition were transferred into 150 mL T150 flasks containing 50 mL B11 media with 3% glucose and 0.2% of their respective supplemental component. Cultures were grown in the dark for one week at 28° C. Cells were pelleted and fresh media (100 mL) were added to the cultures. The cultures were allowed to grow for another two weeks in the dark at 28° C. and then were collected and dry cell weights were measured. For most conditions, the addition of a 0.2% supplemental component increased cell growth as compared to glucose control. […]

[2] = system: Botryococcus braunii N-836; assay: Complex nitrogen sources on heterotrophic growth with glucose; settings: N-836, 1% glucose in BG11, dark, 4 weeks
Description: (§1) The following experiment was done with UTEX 572, UTEX 2441, and N-836 in 20 ml of BG11 plus:
(§2) 1% glucose+2 g/L hydrolyzed casein

[3] = system: Botryococcus braunii UTEX 572; assay: as above; settings: UTEX 572, 1% glucose in BG11, dark, 4 weeks
Description: as §1, §2

[4] = system: Botryococcus braunii UTEX 2441; assay: as above; settings: UTEX 2441, 1% glucose in BG11, dark, 4 weeks
Description: as §1, §2

[5] = system: Botryococcus braunii (UTEX 572); assay: High surface to volume heterotrophic cultivation; settings: UTEX 572, 3% glucose, dark, stepwise scale-up
Description: In order to develop a reproducible, scalable process for the heterotrophic cultivation of B. braunii, a low-volume, slow-mixing heterotrophic procedure was developed. Botryococcus braunii (UTEX 572) cultures were transferred from solid media plates into 6-well plates using B-11 media supplemented with 3% glucose and was grown for one week at room temperature in the dark. The cultures were then transferred into 50 mL of fresh media in a 150 mL T-flask and agitated at 40 rpm on a plate shaker for one week at room temperature in the dark. The cultures were then transferred into 100 mL of fresh media in a 500 mL T-flask and agitated at 30 rpm with a two-inch throw for one week at room temperature in the dark. Finally, the cultures were transferred into 350 mL of fresh media in a Fernbach flask and agitated at 30 rpm with a two-inch throw for one week at room temperature in the dark. In one set of cultures, the cells were transferred into 500 mL of fresh media in a Fernbach flask (instead of 350 mL). Dry cell weights were collected for all cultures and compared. Cultures that were grown in a final volume of 350 mL of media reached a DCW of about 9 grams per liter.

[6] = system: Botryococcus braunii N-836; assay: Different fixed carbon sources on heterotrophic growth, visual score; design: key to heterotrophic growth score, 0.1% / heterotrophic growth score, 0.5% / heterotrophic growth score, 1%: Growth was scored with +'s by visual examination of the cultures; ++: Growth was scored with +'s by visual examination of the cultures; +++: Growth was scored with +'s by visual examination of the cultures; ++++: Growth was scored with +'s by visual examination of the cultures; +++++: Growth was scored with +'s by visual examination of the cultures
Description: (§3) All carbon sources were tested at three different concentrations; 0.1%, 0.5% and 1%. Cultures were grown in 24 well plates for 4 weeks in the dark in 1 ml BG11 plus fixed carbon. Control cultures were grown in BG-11 media under phototrophic conditions without a fixed carbon source. Growth was scored with +'s by visual examination of the cultures (see Table 7). UTEX 572 grew best in glucose, however there was also growth on mannose, galactose and fructose. UTEX 2441 preferred mannose in the dark but there was some growth in galactose, fructose and glycerol.

[7] = system: Botryococcus braunii UTEX 572; assay: as above; design: key to heterotrophic growth score, 0.1% / heterotrophic growth score, 0.5% / heterotrophic growth score, 1%: Growth was scored with +'s by visual examination of the cultures; ++: Growth was scored with +'s by visual examination of the cultures; +++: Growth was scored with +'s by visual examination of the cultures; ++++: Growth was scored with +'s by visual examination of the cultures; +++++: Growth was scored with +'s by visual examination of the cultures
Description: as §3

[8] = system: Botryococcus braunii UTEX 2441; assay: as above; design: key to heterotrophic growth score, 0.1% / heterotrophic growth score, 0.5% / heterotrophic growth score, 1%: Growth was scored with +'s by visual examination of the cultures; ++: Growth was scored with +'s by visual examination of the cultures; +++: Growth was scored with +'s by visual examination of the cultures; ++++: Growth was scored with +'s by visual examination of the cultures; +++++: Growth was scored with +'s by visual examination of the cultures; settings: 4 weeks
Description: as §3

[9] = system: Botryococcus braunii UTEX 572; assay: Heterotrophic growth with glucose, 24 well plate, dark or light; settings: for DCW g/L / DCW mg/ml.: 4 weeks
Description: (§4) Modified BG-11 (17.65 mM NaNO3, 0.23 mM K2PO4, 0.3 mM MgSO4.7H2O, 0.25 mM CaCl2.2H2O, 0.189 mM Na2CO3, 0.03 mM citric acid monohydrate, 0.023 mM ferric ammonium citrate, 0.046 mM H3BO3, 9.15 μM MnCl2.4H2O, 0.77 μM ZnSO4.7H2O, 0.32 μM CuSO4.5H2O, 0.21 μM CoCl2.6H2O, 1.62 μM NaMoO4.2H2O, 2.69 μM Na2EDTA, 9 mg/l Tricine, 1.99 μM Thiamine-HCl, 0.006 μM Cyanocobalamine, 0.044 μM Calcium Pantothenate, 0.29 μM p-aminobenzoic acid, soil water).

[10] = system: Botryococcus braunii UTEX 2441; assay: as above; settings: for DCW g/L / DCW mg/ml.: 4 weeks
Description: as §4

For `OC[C@H]1O[C@H](O[C@H]2[C@H](O)[C@@H](O)C(O)O[C@@H]2CO)[C@H](O)[C@@H](O)[C@@H]1O` (mixture of isomers) [maltose], the “growth by visual observation as compared to glucose only control” value [1] was “better growth”.

`O=C[C@H](O)[C@@H](O)[C@H](O)[C@H](O)CO` [glucose] was tested, and the “DCW” value [2] was 0.267 g/L, the “DCW mg/3 m1.” value [2] was 0.8 mg/3 m1 and the “DCW” value [3] was 0.20 g/L and 0.33 g/L. The “DCW mg/3 m1.” value [3] was 0.6 mg/3 m1 and 1.0 mg/3 m1, the “DCW” value [4] was 0.067 g/L and the “DCW mg/3 m1.” value [4] was 0.2 mg/3 m1. The DCW ([5]; final volume 350 mL) was “about 9 grams per liter”, the DCW ([5]; final volume 500 mL) was “about 3 grams per liter” and the “heterotrophic growth score, 0.1%” value ([6]; N-836, 0.1% carbon source in 1 ml BG11, dark, 4 weeks) was “++”. The “heterotrophic growth score, 0.5%” value ([6]; N-836, 0.5% carbon source in 1 ml BG11, dark, 4 weeks) was “++”, the “heterotrophic growth score, 1%” value ([6]; N-836, 1% carbon source in 1 ml BG11, dark, 4 weeks) was “+++” and the “heterotrophic growth on carbon source, in words” value ([6]; N-836, dark) was “heterotrophic growth”. For the same compound, the “heterotrophic growth score, 0.1%” value ([7]; UTEX 572, 0.1% carbon source in 1 ml BG11, dark, 4 weeks) was “+++”, the “heterotrophic growth score, 0.5%” value ([7]; UTEX 572, 0.5% carbon source in 1 ml BG11, dark, 4 weeks) was “++++” and the “heterotrophic growth score, 1%” value ([7]; UTEX 572, 1% carbon source in 1 ml BG11, dark, 4 weeks) was “+++++”. The “heterotrophic growth on carbon source, in words” value ([7]; UTEX 572, dark) was “grew best”, the “heterotrophic growth score, 0.1%” value ([8]; UTEX 2441, 0.1% carbon source in 1 ml BG11, dark) was “++” and the “heterotrophic growth score, 0.5%” value ([8]; UTEX 2441, 0.5% carbon source in 1 ml BG11, dark) was “++”. The “heterotrophic growth score, 1%” value ([8]; UTEX 2441, 1% carbon source in 1 ml BG11, dark) was “++++”, the “DCW g/L” value ([9]; UTEX 572, 0.1% glucose, dark) was 0.2 g/L and the DCW mg/ml. ([9]; UTEX 572, 0.1% glucose, dark) was 0.2 mg/mL. For the same compound, the “DCW g/L” value ([9]; UTEX 572, 0.2% glucose, dark) was 0.2 g/L, the DCW mg/ml. ([9]; UTEX 572, 0.2% glucose, dark) was 0.2 mg/mL and the “DCW g/L” value ([9]; UTEX 572, 0.5% glucose, dark) was 0.4 g/L. The DCW mg/ml. ([9]; UTEX 572, 0.5% glucose, dark) was 0.4 mg/mL, the “growth in the dark at 1% glucose compared with 0.1 and 0.5%” value ([9]; UTEX 572, 1% glucose, dark) was “best growth” and the “growth with glucose in the dark” value ([9]; UTEX 572, BG11 plus glucose, dark) was “clearly grew”. The “growth with glucose in the light” value ([9]; UTEX 572, BG11 plus glucose, light) was “no growth”, the “DCW g/L” value ([10]; UTEX 2441, 0.1% glucose, dark) was 0.3 g/L and the DCW mg/ml. ([10]; UTEX 2441, 0.1% glucose, dark) was 0.3 mg/mL. The “DCW g/L” value ([10]; UTEX 2441, 0.2% glucose, dark) was 0.3 g/L, the DCW mg/ml. ([10]; UTEX 2441, 0.2% glucose, dark) was 0.3 mg/mL and the “DCW g/L” value ([10]; UTEX 2441, 0.5% glucose, dark) was 0.1 g/L. The DCW mg/ml. ([10]; UTEX 2441, 0.5% glucose, dark) was 0.1 mg/mL, the “growth in the dark at 1% glucose compared with 0.1 and 0.5%” value ([10]; UTEX 2441, 1% glucose, dark) was “best growth” and the “DCW g/L” value ([10]; UTEX 2441, 1.0% glucose, dark) was 0.7 g/L. The DCW mg/ml. ([10]; UTEX 2441, 1.0% glucose, dark) was 0.7 mg/mL, the “growth with glucose in the dark” value ([10]; UTEX 2441, BG11 plus glucose, dark) was “clearly grew” and the “growth with glucose in the light” value ([10]; UTEX 2441, BG11 plus glucose, light) was “no growth”.
